# Patent US11034913B2, “Metal working fluid” (Henkel AG & Co. KGaA, priority 2015, dated 2021)
# Key:
# Format in all cases: cell-based
# [1] = tested on: Mycobacterium immunogenum; assay: Mycobacterium challenge, four-week re-inoculation test: Mycobacterium count; settings: 5 w/w % dilution
# Experimental: (§1) A tap water dilution of the metal working fluid for the Mycobacterium challenge was made to a concentration of 5 w/w %. The sample was tested by Biosan Laboratories, in Warren, Mich., USA, an independent commercial biological laboratory, for biostatic activity against Mycobacterium and against mixed Gram-negative bacteria.
# (§2) The test method evaluated the effectiveness of antimicrobial agents in controlling Mycobacterium immunogenum in the presence of high background population of Gram-negative and other bacteria responsible for metal working fluid deterioration. Sample metal working fluids including the biostat of Example 5 and antimicrobial agents were prepared at use concentrations. 1% iron chips were added to the diluted metal working fluid samples. Two microbial populations were then introduced at a 1% level: an undefined Gram-negative bacterial inoculum isolated from a contaminated metal working fluid, and an inoculum containing Mycobacterium immunogenum. The inoculated test metal working fluids were incubated at room temperature (22+2° C.) on an orbital shaker for four weeks. During the four week test period, the metal working fluids were evaluated twice weekly for bacterial and mycobacterial contamination before being re-inoculated with both microbial suspensions at 1% concentrations. This re-inoculation method ensured sufficient viable Gram-negative and Mycobacterium levels throughout the test.
# [2] = tested on: Mixed Gram Negative Bacteria; assay: Mycobacterium challenge, four-week re-inoculation test: mixed Gram-negative bacteria count; settings: 5 w/w % dilution
# Experimental: as §1, §2
# [3] = tested on: mixed Gram-negative bacteria; assay: Minimum inhibitory concentration testing (biostat candidate screening, Phase 1 and Phase 2; dip slide counts)
# [4] = Sample 1, Day 0 (Initial Inoculum)
# [5] = Sample 2, Day 0 (Initial Inoculum)
# [6] = Phase 1, log bacterial counts at 24 and 48 h versus DCHA standard, scale 0-6, 3 = matches DCHA standard, higher = better
smiles,measurement,setting,value
"CC(CN)CCCN (stereo not shown) [Example 5, Methylpentamethylene diamine]",Mycobacterium immunogenum count,[1]; [4],~1 × 10^5 cfu/ml
same,Mycobacterium immunogenum count,"[1]; Sample 1, Day 2",<2 cfu/ml
same,Mycobacterium immunogenum count,"[1]; Sample 1, Day 7",<2 cfu/ml
same,Mycobacterium immunogenum count,"[1]; Sample 1, Day 9",<2 cfu/ml
same,Mycobacterium immunogenum count,"[1]; Sample 1, Day 14",<2 cfu/ml
same,Mycobacterium immunogenum count,"[1]; Sample 1, Day 16",<2 cfu/ml
same,Mycobacterium immunogenum count,"[1]; Sample 1, Day 21",<2 cfu/ml
same,Mycobacterium immunogenum count,"[1]; Sample 1, Day 23",<2 cfu/ml
same,Mycobacterium immunogenum count,[1]; [5],~1 × 10^5 cfu/ml
same,Mycobacterium immunogenum count,"[1]; Sample 2, Day 2",<2 cfu/ml
same,Mycobacterium immunogenum count,"[1]; Sample 2, Day 7",<2 cfu/ml
same,Mycobacterium immunogenum count,"[1]; Sample 2, Day 9",<2 cfu/ml
same,Mycobacterium immunogenum count,"[1]; Sample 2, Day 14",<2 cfu/ml
same,Mycobacterium immunogenum count,"[1]; Sample 2, Day 16",<2 cfu/ml
same,Mycobacterium immunogenum count,"[1]; Sample 2, Day 21",<2 cfu/ml
same,Mycobacterium immunogenum count,"[1]; Sample 2, Day 23",<2 cfu/ml
same,Mixed Gram Negative Bacteria count,[2]; [4],~1 × 10^6 cfu/ml
same,Mixed Gram Negative Bacteria count,"[2]; Sample 1, Day 2",<2 cfu/ml
same,Mixed Gram Negative Bacteria count,"[2]; Sample 1, Day 7",<2 cfu/ml
same,Mixed Gram Negative Bacteria count,"[2]; Sample 1, Day 9",<2 cfu/ml
same,Mixed Gram Negative Bacteria count,"[2]; Sample 1, Day 14",<2 cfu/ml
same,Mixed Gram Negative Bacteria count,"[2]; Sample 1, Day 16",<2 cfu/ml
same,Mixed Gram Negative Bacteria count,"[2]; Sample 1, Day 21",<2 cfu/ml
same,Mixed Gram Negative Bacteria count,"[2]; Sample 1, Day 23",<2 cfu/ml
same,Mixed Gram Negative Bacteria count,[2]; [5],~1 × 10^6 cfu/ml
same,Mixed Gram Negative Bacteria count,"[2]; Sample 2, Day 2",<2 cfu/ml
same,Mixed Gram Negative Bacteria count,"[2]; Sample 2, Day 7",<2 cfu/ml
same,Mixed Gram Negative Bacteria count,"[2]; Sample 2, Day 9",<2 cfu/ml
same,Mixed Gram Negative Bacteria count,"[2]; Sample 2, Day 14",<2 cfu/ml
same,Mixed Gram Negative Bacteria count,"[2]; Sample 2, Day 16",<2 cfu/ml
same,Mixed Gram Negative Bacteria count,"[2]; Sample 2, Day 21",<2 cfu/ml
same,Mixed Gram Negative Bacteria count,"[2]; Sample 2, Day 23",<2 cfu/ml
same,"Differential Value Scores, Average","[3]; Phase 1, average of Rounds 1-3, scale 0-6, 3 = matches DCHA standard",3.3
same,"Differential Value Scores, Round 1",[3]; [6],2.5
same,"Differential Value Scores, Round 2",[3]; [6],4.5
same,"Differential Value Scores, Round 3",[3]; [6],3
same,Biostatic efficacy regarding Gram-negative bacteria compared with the DCHA standard,"[3]; result in words, 3 wt. % amine in metal working fluid",outperformed DCHA
